Assay results reported in ChEMBL document CHEMBL4417621, “Methods to identify tas2r modulators” (2013).
Calls of active or inactive are those of the source. The rule behind the calls is not given here.

Experiments:
[1] = molecular target: T1, Taste receptor type 2 member 16 (Homo sapiens) (UniProt Q9NYV7); assay: Activation of full-length human TAS2R16 expressed in HEK293T/Galpha16-gustducin 44 cells assessed as effect on calcium flux by measuring deltaF/F0 ratio at 0.0781 mM by Fluo-4 dye based FLIPR assay; format: functional, cell-based
T1 sequence (whole entry): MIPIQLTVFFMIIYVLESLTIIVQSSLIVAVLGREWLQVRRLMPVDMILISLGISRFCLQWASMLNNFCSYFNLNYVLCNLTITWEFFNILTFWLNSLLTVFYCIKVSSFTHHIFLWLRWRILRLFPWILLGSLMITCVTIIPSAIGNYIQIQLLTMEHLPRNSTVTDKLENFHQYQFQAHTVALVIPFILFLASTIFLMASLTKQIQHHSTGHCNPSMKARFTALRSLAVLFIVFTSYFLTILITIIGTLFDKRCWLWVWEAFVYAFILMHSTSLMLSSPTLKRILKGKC

[2] = molecular target: T1, Taste receptor type 2 member 16 (Homo sapiens); assay: Activation of full-length human TAS2R16 expressed in HEK293T/Galpha16-gustducin 44 cells assessed as effect on calcium flux by measuring deltaF/F0 ratio at 5 mM by Fluo-4 dye based FLIPR assay; format: functional, cell-based
[3] = molecular target: T1, Taste receptor type 2 member 16 (Homo sapiens); assay: Activation of full-length human TAS2R16 expressed in HEK293T/Galpha16-gustducin 44 cells assessed as effect on calcium flux by measuring deltaF/F0 ratio at 0.3125 mM by Fluo-4 dye based FLIPR assay; format: functional, cell-based
[4] = molecular target: T1, Taste receptor type 2 member 16 (Homo sapiens); assay: Activation of full-length human TAS2R16 expressed in HEK293T/Galpha16-gustducin 44 cells assessed as effect on calcium flux by measuring deltaF/F0 ratio at 10 mM by Fluo-4 dye based FLIPR assay; format: functional, cell-based
[5] = molecular target: T1, Taste receptor type 2 member 16 (Homo sapiens); assay: Activation of full-length human TAS2R16 expressed in HEK293T/Galpha16-gustducin 44 cells assessed as effect on calcium flux by measuring deltaF/F0 ratio at 0.0391 mM by Fluo-4 dye based FLIPR assay; format: functional, cell-based
[6] = molecular target: T1, Taste receptor type 2 member 16 (Homo sapiens); assay: Activation of full-length human TAS2R16 expressed in HEK293T/Galpha16-gustducin 44 cells assessed as effect on calcium flux by measuring deltaF/F0 ratio at 2.5 mM by Fluo-4 dye based FLIPR assay; format: functional, cell-based
[7] = molecular target: T1, Taste receptor type 2 member 16 (Homo sapiens); assay: Activation of full-length human TAS2R16 expressed in HEK293T/Galpha16-gustducin 44 cells assessed as effect on calcium flux by measuring deltaF/F0 ratio at 1.25 mM by Fluo-4 dye based FLIPR assay; format: functional, cell-based
[8] = molecular target: T1, Taste receptor type 2 member 16 (Homo sapiens); assay: Activation of full-length human TAS2R16 expressed in HEK293T/Galpha16-gustducin 44 cells assessed as effect on calcium flux by measuring deltaF/F0 ratio at 0.1563 mM by Fluo-4 dye based FLIPR assay; format: functional, cell-based
[9] = molecular target: T2, Taste receptor type 2 member 16 (Homo sapiens, UniProt Q9NYV7); assay: Activation of full-length human TAS2R16 expressed in HEK293T/Galpha16-gustducin 44 cells assessed as stimulation of calcium flux by measuring deltaF/F0 ratio by Fluo-4 dye based FLIPR assay; format: functional, cell-based
T2 sequence (Q9NYV7 whole entry): T1 sequence (whole entry)

[10] = molecular target: T1, Taste receptor type 2 member 16 (Homo sapiens); assay: Activation of full-length human TAS2R16 expressed in HEK293T/Galpha16-gustducin 44 cells assessed as effect on calcium flux by measuring deltaF/F0 ratio at 0.625 mM by Fluo-4 dye based FLIPR assay; format: functional, cell-based
[11] = molecular target: T3, Taste receptor type 2 member 1 (Homo sapiens) (UniProt Q9NYW7); assay: Antagonist activity at full-length human TAS2R1 expressed in HEK293T/Galpha16-gustducin 44 cells assessed as inhibition of sucralose-induced calcium flux at 25 uM by Fluo-4 dye based FLIPR assay; format: functional, cell-based
T3 sequence (whole entry): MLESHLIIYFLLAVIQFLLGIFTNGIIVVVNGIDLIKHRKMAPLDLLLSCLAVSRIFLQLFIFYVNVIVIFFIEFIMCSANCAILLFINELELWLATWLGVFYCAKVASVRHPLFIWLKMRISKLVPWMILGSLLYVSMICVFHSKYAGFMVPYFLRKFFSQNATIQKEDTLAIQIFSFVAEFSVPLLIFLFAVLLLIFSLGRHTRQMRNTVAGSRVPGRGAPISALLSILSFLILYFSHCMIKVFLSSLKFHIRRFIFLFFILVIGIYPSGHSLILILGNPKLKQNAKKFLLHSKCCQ

[12] = molecular target: T1, Taste receptor type 2 member 16 (Homo sapiens); assay: Antagonist activity at full-length human TAS2R16 expressed in HEK293T/Galpha16-gustducin 44 cells assessed as inhibition of P-beta-G-induced calcium flux by measuring P-beta-G EC50 at 25 uM by Fluo-4 dye based FLIPR assay; format: functional, cell-based
HEK-293T = assay: Effect on calcium flux in HEK293T/Galpha16-gustducin 44 cells assessed as effect on calcium flux by measuring deltaF/F0 ratio at 25 uM in presence of 100 mM sucralose by Fluo-4 dye based FLIPR assay (reference value: -0.179 +/- 0.023); format: functional
[13] = molecular target: T1, Taste receptor type 2 member 16 (Homo sapiens); assay: Antagonist activity at full-length human TAS2R16 expressed in HEK293T/Galpha16-gustducin 44 cells assessed as effect on calcium flux by measuring deltaF/F0 ratio at 25 uM in presence of 0.625 mM phenyl-beta-glucopyranoside by Fluo-4 dye based FLIPR assay; format: functional, cell-based
[14] = molecular target: T4, Taste receptor type 2 member 31 (Homo sapiens) (UniProt P59538); assay: Antagonist activity at full-length human TAS2R44 expressed in HEK293T/Galpha16-gustducin 44 cells assessed as effect on calcium flux by measuring deltaF/F0 ratio at 25 uM in presence of 12.5 mM sucralose by Fluo-4 dye based FLIPR assay (reference value: 0.051 +/- 0.004); format: functional, cell-based
T4 sequence (whole entry): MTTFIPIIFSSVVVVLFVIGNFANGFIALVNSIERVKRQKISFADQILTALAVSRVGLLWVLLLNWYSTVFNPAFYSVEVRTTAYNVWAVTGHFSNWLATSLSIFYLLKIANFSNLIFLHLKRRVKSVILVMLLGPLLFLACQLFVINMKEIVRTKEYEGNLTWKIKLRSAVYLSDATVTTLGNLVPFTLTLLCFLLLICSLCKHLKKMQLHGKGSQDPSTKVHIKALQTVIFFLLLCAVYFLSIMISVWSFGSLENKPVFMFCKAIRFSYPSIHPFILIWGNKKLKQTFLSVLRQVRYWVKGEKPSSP

[15] = molecular target: T1, Taste receptor type 2 member 16 (Homo sapiens); assay: Antagonist activity at full-length human TAS2R16 expressed in HEK293T/Galpha16-gustducin 44 cells assessed as effect on calcium flux by measuring deltaF/F0 ratio at 25 uM in presence of 0.0781 mM phenyl-beta-glucopyranoside by Fluo-4 dye based FLIPR assay; format: functional, cell-based
[16] = molecular target: T4, Taste receptor type 2 member 31 (Homo sapiens); assay: Antagonist activity at full-length human TAS2R44 expressed in HEK293T/Galpha16-gustducin 44 cells assessed as effect on calcium flux by measuring deltaF/F0 ratio at 25 uM in presence of 25 mM sucralose by Fluo-4 dye based FLIPR assay (reference value: 0.110 +/- 0.019); format: functional, cell-based
[17] = molecular target: T1, Taste receptor type 2 member 16 (Homo sapiens); assay: Antagonist activity at full-length human TAS2R16 expressed in HEK293T/Galpha16-gustducin 44 cells assessed as effect on calcium flux by measuring deltaF/F0 ratio at 25 uM in presence of 0.3125 mM phenyl-beta-glucopyranoside by Fluo-4 dye based FLIPR assay; format: functional, cell-based
[18] = molecular target: T4, Taste receptor type 2 member 31 (Homo sapiens); assay: Antagonist activity at full-length human TAS2R44 expressed in HEK293T/Galpha16-gustducin 44 cells assessed as effect on calcium flux by measuring deltaF/F0 ratio at 25 uM in presence of 0.7813 mM sucralose by Fluo-4 dye based FLIPR assay (reference value: 0.038 +/- 0.042); format: functional, cell-based
[19] = molecular target: T1, Taste receptor type 2 member 16 (Homo sapiens); assay: Antagonist activity at full-length human TAS2R16 expressed in HEK293T/Galpha16-gustducin 44 cells assessed as effect on calcium flux by measuring deltaF/F0 ratio at 25 uM in presence of 0.0391 mM phenyl-beta-glucopyranoside by Fluo-4 dye based FLIPR assay; format: functional, cell-based
Homo sapiens = organism: Homo sapiens; assay: Inhibition of 3 mM sucralose-induced bitter sensitivity in bitter sensitive human panelists tasting solution containing 3 mM sucralose with 13 ppm test compound; format: functional, organism-based
[20] = molecular target: T4, Taste receptor type 2 member 31 (Homo sapiens); assay: Antagonist activity at full-length human TAS2R44 expressed in HEK293T/Galpha16-gustducin 44 cells assessed as effect on calcium flux by measuring deltaF/F0 ratio at 25 uM in presence of 6.25 mM sucralose by Fluo-4 dye based FLIPR assay (reference value: 0.027 +/- 0.029); format: functional, cell-based
[21] = molecular target: T1, Taste receptor type 2 member 16 (Homo sapiens); assay: Antagonist activity at full-length human TAS2R16 expressed in HEK293T/Galpha16-gustducin 44 cells assessed as effect on calcium flux by measuring deltaF/F0 ratio at 25 uM in presence of 0.1563 mM phenyl-beta-glucopyranoside by Fluo-4 dye based FLIPR assay; format: functional, cell-based
[22] = molecular target: T1, Taste receptor type 2 member 16 (Homo sapiens); assay: Antagonist activity at full-length human TAS2R16 expressed in HEK293T/Galpha16-gustducin 44 cells assessed as effect on calcium flux by measuring deltaF/F0 ratio at 25 uM in presence of 5 mM phenyl-beta-glucopyranoside by Fluo-4 dye based FLIPR assay; format: functional, cell-based
[23] = molecular target: T1, Taste receptor type 2 member 16 (Homo sapiens); assay: Antagonist activity at full-length human TAS2R16 expressed in HEK293T/Galpha16-gustducin 44 cells assessed as effect on calcium flux by measuring deltaF/F0 ratio at 25 uM in presence of 2.5 mM phenyl-beta-glucopyranoside by Fluo-4 dye based FLIPR assay; format: functional, cell-based
[24] = molecular target: T1, Taste receptor type 2 member 16 (Homo sapiens); assay: Antagonist activity at full-length human TAS2R16 expressed in HEK293T/Galpha16-gustducin 44 cells assessed as effect on calcium flux by measuring deltaF/F0 ratio at 25 uM in presence of 1.25 mM phenyl-beta-glucopyranoside by Fluo-4 dye based FLIPR assay; format: functional, cell-based
[25] = molecular target: T4, Taste receptor type 2 member 31 (Homo sapiens); assay: Antagonist activity at full-length human TAS2R44 expressed in HEK293T/Galpha16-gustducin 44 cells assessed as effect on calcium flux by measuring deltaF/F0 ratio at 25 uM in presence of 100 mM sucralose by Fluo-4 dye based FLIPR assay (reference value: 0.352 +/- 0.030); format: functional, cell-based
[26] = molecular target: T4, Taste receptor type 2 member 31 (Homo sapiens); assay: Antagonist activity at full-length human TAS2R44 expressed in HEK293T/Galpha16-gustducin 44 cells assessed as effect on calcium flux by measuring deltaF/F0 ratio at 25 uM in presence of 3.125 mM sucralose by Fluo-4 dye based FLIPR assay (reference value: 0.030 +/- 0.042); format: functional, cell-based
[27] = molecular target: T1, Taste receptor type 2 member 16 (Homo sapiens); assay: Antagonist activity at full-length human TAS2R16 expressed in HEK293T/Galpha16-gustducin 44 cells assessed as effect on calcium flux by measuring deltaF/F0 ratio at 25 uM in presence of 10 mM phenyl-beta-glucopyranoside by Fluo-4 dye based FLIPR assay; format: functional, cell-based
[28] = molecular target: T4, Taste receptor type 2 member 31 (Homo sapiens); assay: Antagonist activity at full-length human TAS2R44 expressed in HEK293T/Galpha16-gustducin 44 cells assessed as effect on calcium flux by measuring deltaF/F0 ratio at 25 uM in presence of 1.5625 mM sucralose by Fluo-4 dye based FLIPR assay (reference value: 0.042 +/- 0.039); format: functional, cell-based
[29] = molecular target: T4, Taste receptor type 2 member 31 (Homo sapiens); assay: Antagonist activity at full-length human TAS2R44 expressed in HEK293T/Galpha16-gustducin 44 cells assessed as effect on calcium flux by measuring deltaF/F0 ratio at 25 uM in presence of 0.3906 mM sucralose by Fluo-4 dye based FLIPR assay (reference value: 0.046 +/- 0.048); format: functional, cell-based
[30] = molecular target: T4, Taste receptor type 2 member 31 (Homo sapiens); assay: Antagonist activity at full-length human TAS2R44 expressed in HEK293T/Galpha16-gustducin 44 cells assessed as effect on calcium flux by measuring deltaF/F0 ratio at 25 uM in presence of 50 mM sucralose by Fluo-4 dye based FLIPR assay (reference value: 0.192 +/- 0.011); format: functional, cell-based

## OC[C@H]1O[C@@H](Oc2ccccc2)[C@H](O)[C@@H](O)[C@@H]1O
[1]
  Ratio: 0.213
[2]
  Ratio: 2.69
[3]
  Ratio: 1.81
[4]
  Ratio: 2.88
[5]
  Ratio: 0.012
[6]
  Ratio: 2.58
[7]
  Ratio: 2.36
[8]
  Ratio: 0.926
[9]
  EC50: 210 µM
[10]
  Ratio: 2.28

## CC1CCC(CCCC(N)=O)C1(C)C (centres undefined)
[11]
  inhibition: inactive
[12]
  inhibition: inactive
HEK-293T; Homo sapiens
  Activity: inactive

## CC1=CCC(C/C=C/C(=O)O)C1(C)C (centres undefined)
[13]
  Ratio: 2.14
[14]
  Ratio: -0.015
[11]
  inhibition: Active
[15]
  Ratio: 0.108
[16]
  Ratio: -0.035
[17]
  Ratio: 1.55
[18]
  Ratio: 0.01
[19]
  Ratio: -0.013
Homo sapiens
  inhibition: Active
[20]
  Ratio: 0
[21]
  Ratio: 0.702
[22]
  Ratio: 2.65
[23]
  Ratio: 2.48
[24]
  Ratio: 2.37
[25]
  Ratio: 0.107
[26]
  Ratio: 0.005
[27]
  Ratio: 2.83
[28]
  Ratio: 0.016
HEK-293T
  Ratio: -0.175
[29]
  Ratio: 0.011
[30]
  Ratio: -0.025
